Experimental data taken from BindingDB's records for patent US11918568 (Sanford Burnham Prebys Medical Discovery Institute, 2024).

Target: Nicotinamide phosphoribosyltransferase (Homo sapiens, UniProt P43490)
Test: NAMPT Enzyme Activating Effect (In Vitro Cell-Free Enzyme Assay

Chain of Nicotinamide phosphoribosyltransferase (P43490 whole entry): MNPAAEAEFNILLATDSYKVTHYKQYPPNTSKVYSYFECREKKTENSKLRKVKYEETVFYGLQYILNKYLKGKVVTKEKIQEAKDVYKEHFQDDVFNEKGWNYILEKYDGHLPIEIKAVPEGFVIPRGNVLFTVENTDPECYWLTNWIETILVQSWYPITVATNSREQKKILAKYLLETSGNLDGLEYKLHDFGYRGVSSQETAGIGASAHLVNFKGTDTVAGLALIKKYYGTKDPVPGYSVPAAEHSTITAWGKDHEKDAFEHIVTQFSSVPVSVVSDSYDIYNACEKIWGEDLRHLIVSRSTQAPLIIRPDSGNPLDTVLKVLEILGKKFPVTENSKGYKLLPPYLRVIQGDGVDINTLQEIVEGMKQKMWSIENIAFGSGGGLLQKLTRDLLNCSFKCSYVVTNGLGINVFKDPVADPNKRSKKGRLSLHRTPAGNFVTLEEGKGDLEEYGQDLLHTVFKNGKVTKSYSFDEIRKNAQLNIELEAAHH

- EC50: 230 nM
SMILES: O=C(NCc1ccncc1)Nc1ccn2nc(-c3ccccc3)nc2c1 [US11918568, Example 15]
